In PubChem BioAssay (NCI):
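Cultured in 96-well plates, cells were exposed to test compound for 48 hours across five concentrations. At the GI50, growth is halved. The concentration for full growth arrest is given as TGI.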

What was measured:
Assay in all cases: growth of human tumour cells (NCI), 48 h
SF-268 CNS = system: SF-268 CNS
IGROV1 ovarian = system: IGROV1 ovarian
COLO 205 colon = system: COLO 205 colon
KM12 colon = system: KM12 colon
CAKI-1 renal = system: CAKI-1 renal
A498 renal = system: A498 renal
HCT-116 colon = system: HCT-116 colon
RPMI-8226 leukemia = system: RPMI-8226 leukemia
DU-145 prostate = system: DU-145 prostate
PC-3 prostate = system: PC-3 prostate
MDA-MB-435 = system: MDA-MB-435

Row | Compound | TGI (SF-268 CNS) | TGI (IGROV1 ovarian) | TGI (COLO 205 colon) | TGI (KM12 colon) | TGI (CAKI-1 renal) | TGI (A498 renal) | TGI (HCT-116 colon) | TGI (RPMI-8226 leukemia) | TGI (DU-145 prostate) | TGI (PC-3 prostate) | TGI (MDA-MB-435) | GI50 (DU-145 prostate) | GI50 (SF-268 CNS) | GI50 (COLO 205 colon) | GI50 (KM12 colon) | GI50 (CAKI-1 renal) | GI50 (A498 renal) | GI50 (PC-3 prostate) | GI50 (RPMI-8226 leukemia) | GI50 (MDA-MB-435)
1 | C[n+]1c2ccccc2c(CNCC(=O)O)c2ccccc21 | 1.9 µM | 22.6 µM | 2.9 µM | 11 µM | 1.84 µM | 7.43 µM | 1.3 µM | 1.52 µM |  |  |  |  |  |  |  |  |  |  |  | 
2 | COc1ccc2c(c1)C(OC)C1c3c(cc4c(c3-2)OCO4)CCN1C (stereo unspecified) | 20.2 µM | 14.8 µM | > 43.6 µM | 18.6 µM | 7.32 µM | 4.96 µM | > 71.7 µM | 20.6 µM | > 52 µM | 9.34 µM | 13.1 µM |  |  |  |  |  |  |  |  | 
3 | CS(=O)(=O)c1ccc2nc(-c3ccc(O)cc3)sc2c1 | 32.3 µM | 34.9 µM | > 100 µM | 30.2 µM | 31.4 µM | 31.2 µM | 30.5 µM | 35.7 µM | 29.6 µM | 32.1 µM | 37.8 µM |  |  |  |  |  |  |  |  | 
4 | N=C(N)c1ccc(-c2ccc(-c3ccc4ccccc4c3)s2)s1 | 5.5 µM |  | 3.17 µM | 4.08 µM | 11.6 µM | 10.5 µM |  | 5.02 µM | 3.44 µM | 4.87 µM | 4.08 µM | 1.83 µM | 2.25 µM | 1.63 µM | 1.92 µM | 3.11 µM | 1.7 µM | 2.19 µM | 2.3 µM | 1.91 µM
5 | C=CCNC1=C2C[C@@H](C)C[C@H](OC)[C@H](O)[C@@H](C)/C=C(\C)[C@H](OC(N)=O)[C@@H](OC)/C=C\C=C(/C)C(=O)NC(=CC1=O)C2=O | 49.6 µM | 15.1 µM | 1.67 µM | 0.237 µM | 38 µM | 30 µM | 26.1 µM | 26.2 µM | 7.33 µM | 40.7 µM | 17 µM |  |  |  |  |  |  |  |  | 
6 | COc1ccc(N2C(=O)/C(=C\c3ccccc3)SC2c2cc(OC)c(OC)c(OC)c2)cc1 (stereo unspecified) | > 100 µM |  | > 100 µM | > 100 µM | > 100 µM | > 100 µM | > 100 µM |  |  | > 100 µM | 79.7 µM |  |  |  |  |  |  |  |  | 
7 | C[P+](c1ccccc1)(c1ccc(Cl)cc1)c1ccc(Cl)cc1 | > 100 µM | 21.8 µM | 22 µM |  |  | 98.3 µM | 44.9 µM | 2.41 µM | 94.6 µM | 70.6 µM | 18.7 µM |  |  |  |  |  |  |  |  | 
8 | O=C(CSCC(=O)N/N=C\c1ccc(O)c(O)c1O)N/N=C\c1ccc(O)c(O)c1O | > 100 µM | 42.2 µM | > 100 µM | 37.1 µM | 37.1 µM | > 100 µM | 13.4 µM | 6.86 µM | 29.1 µM |  | 3.59 µM |  |  |  |  |  |  |  |  | 
9 | NC(CCP(=O)(O)O)C(=O)O (stereo unspecified) | > 100 µM | > 100 µM |  | > 100 µM | > 100 µM | > 100 µM | > 100 µM | > 100 µM |  | > 100 µM | > 100 µM |  |  |  |  |  |  |  |  | 
10 | CCCCSCC(NC(=O)/C=C/c1c(C)[nH]c(=O)[nH]c1=O)C(=O)OC (stereo unspecified) | 341 µM | 316 µM | 112 µM | 157 µM | 155 µM | 224 µM | 246 µM | 267 µM |  |  |  |  |  |  |  |  |  |  |  | 
11 | CN(C)CCOc1cc2c(c3ccccc13)-c1ccccc1C2O (stereo unspecified) | 28.3 µM | 32.4 µM | 27.4 µM | 29.5 µM | 26.7 µM | 29.8 µM | 26.9 µM | 31.2 µM |  |  |  |  |  |  |  |  |  |  |  | 
